From US11878965B2, “Inhibitors of peptidylarginine deiminases” (Gilead Sciences, Inc., priority 2020, dated 2024)

Molecular target: human PAD4 (Homo sapiens (Human), UniProt Q9UM07)
Assay: In Vitro PAD4 BAEE Biochemical Assay
Settings: human PAD4, BAEE substrate; 5 nM PAD4, 2 mM calcium chloride, 3 mM BAEE; geometric mean of multiple experiments
How it was run: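 Deimination of BAEE substrate (3 mM) measured as ammonia via o-phthalaldehyde–DTT isoindole fluorescence, 405/535 nm. Tag-free bacterially expressed human PAD4 at 5 nM with 2 mM calcium chloride, pH 7.6 MOPS buffer, 30 min compound preincubation then 2 h reaction, both at 25 °C.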

human PAD4, sequence (Q9UM07 2-663): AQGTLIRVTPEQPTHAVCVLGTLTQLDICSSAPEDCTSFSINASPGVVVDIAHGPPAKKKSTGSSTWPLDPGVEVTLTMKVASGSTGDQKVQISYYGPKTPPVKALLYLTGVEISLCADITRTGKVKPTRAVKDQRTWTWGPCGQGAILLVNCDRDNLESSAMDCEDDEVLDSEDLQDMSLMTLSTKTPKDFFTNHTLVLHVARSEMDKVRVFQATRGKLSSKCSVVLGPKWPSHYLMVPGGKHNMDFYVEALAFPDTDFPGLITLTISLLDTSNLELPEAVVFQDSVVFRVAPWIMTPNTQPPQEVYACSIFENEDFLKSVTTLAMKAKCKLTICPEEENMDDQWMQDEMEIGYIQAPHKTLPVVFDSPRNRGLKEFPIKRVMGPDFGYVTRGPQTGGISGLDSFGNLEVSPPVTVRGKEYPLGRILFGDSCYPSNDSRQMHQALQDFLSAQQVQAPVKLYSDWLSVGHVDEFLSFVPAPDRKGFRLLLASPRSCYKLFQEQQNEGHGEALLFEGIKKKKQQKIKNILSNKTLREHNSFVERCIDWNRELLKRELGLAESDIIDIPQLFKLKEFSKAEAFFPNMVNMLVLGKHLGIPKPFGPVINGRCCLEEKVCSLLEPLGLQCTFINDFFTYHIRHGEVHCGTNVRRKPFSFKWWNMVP

Structure (SMILES) | IC50 [nM]
COc1cc(C(=O)N2[C@H]3CC[C@@H]2[C@H](N)C3)cc2nc(-c3cc4ccc([C@H]5CCCN5C(=O)C(C)(C)C)nc4n3CC3CC3)n(C)c12 [Example 246, 1-((R)-2-(2-(5-((1R,2R,4S)-2-amino-7-azabicyclo[2.2.1]heptane-7-carbonyl)-7-methoxy-1-methyl-1H-benzo[d]imidazol-2-yl)-1-(cyclopropylmethyl)-1H-pyrrolo[2,3-b]pyridin-6-yl)pyrrolidin-1-yl)-2,2-dimethylpropan-1-one] | 48.4
COc1cc(C(=O)N2[C@H]3CC[C@@H]2[C@H](N)C3)cc2nc(-c3cc4ccc([C@H]5CCCN5C(C)=O)nc4n3CC3CC3)n(C)c12 [Example 247, 1-((R)-2-(2-(5-((1R,2R,4S)-2-amino-7-azabicyclo[2.2.1]heptane-7-carbonyl)-7-methoxy-1-methyl-1H-benzo[d]imidazol-2-yl)-1-(cyclopropylmethyl)-1H-pyrrolo[2,3-b]pyridin-6-yl)pyrrolidin-1-yl)ethan-1-one] | 36.7
COc1cc(C(=O)N2[C@H]3CC[C@@H]2[C@H](N)C3)cc2nc(-c3cc4ccc([C@H]5CCCN5C(=O)N5CCCC5)nc4n3CC3CC3)n(C)c12 [Example 248, ((R)-2-(2-(5-((1R,2R,4S)-2-amino-7-azabicyclo[2.2.1]heptane-7-carbonyl)-7-methoxy-1-methyl-1H-benzo[d]imidazol-2-yl)-1-(cyclopropylmethyl)-1H-pyrrolo[2,3-b]pyridin-6-yl)pyrrolidin-1-yl)(pyrrolidin-1-yl)methanone] | 40.5
COc1cc(C(=O)N2C[C@H](N)CCN2C)cc2nc(-c3cc4ccc(C(C)(C)O)nc4n3CC3CC3)n(C)c12 [Example 249, (R)-(5-amino-2-methyltetrahydropyridazin-1(2H)-yl)(2-(1-(cyclopropylmethyl)-6-(2-hydroxypropan-2-yl)-1H-pyrrolo[2,3-b]pyridin-2-yl)-7-methoxy-1-methyl-1H-benzo[d]imidazol-5-yl)methanone] | 227
COc1cc(C(=O)N2C[C@H](N)CC[C@@H]2C)cc2nc(-c3cc4ccc(C(=O)N(C)C)nc4n3CC3CC3)n(C)c12 [Example 250, 2-(5-((2S,5R)-5-amino-2-methylpiperidine-1-carbonyl)-7-methoxy-1-methyl-1H-benzo[d]imidazol-2-yl)-1-(cyclopropylmethyl)-N,N-dimethyl-1H-pyrrolo[2,3-b]pyridine-6-carboxamide] | 874
CNC(=O)c1ccc2cc(-c3nc4cc(C(=O)N5C[C@H](N)CC[C@@H]5C)cc(OC)c4n3C)n(CC3CC3)c2n1 [Example 251, 2-(5-((2S,5R)-5-amino-2-methylpiperidine-1-carbonyl)-7-methoxy-1-methyl-1H-benzo[d]imidazol-2-yl)-1-(cyclopropylmethyl)-N-methyl-1H-pyrrolo[2,3-b]pyridine-6-carboxamide] | 1720
COc1cc(C(=O)N2C[C@H](N)CC[C@@H]2C)cc2nc(-c3cc4ccc(C(=O)N(C)c5ccccc5)nc4n3CC3CC3)n(C)c12 [Example 252, 2-(5-((2S,5R)-5-amino-2-methylpiperidine-1-carbonyl)-7-methoxy-1-methyl-1H-benzo[d]imidazol-2-yl)-1-(cyclopropylmethyl)-N-methyl-N-phenyl-1H-pyrrolo[2,3-b]pyridine-6-carboxamide] | 1820
COc1cc(C(=O)N2CCC[C@@H](N)C2)cc2nc(-c3cc4ccc(S(C)(=O)=O)nc4n3CC3CC3)n(C)c12 [Example 253, (R)-(3-aminopiperidin-1-yl)(2-(1-(cyclopropylmethyl)-6-(methylsulfonyl)-1H-pyrrolo[2,3-b]pyridin-2-yl)-7-methoxy-1-methyl-1H-benzo[d]imidazol-5-yl)methanone] | 797
COc1cc(C(=O)N2CCC[C@@H](N)C2)cc2nc(-c3cc4ccc(S(=O)(=O)C(C)C)nc4n3CC3CC3)n(C)c12 [Example 254, (R)-(3-aminopiperidin-1-yl)(2-(1-(cyclopropylmethyl)-6-(isopropylsulfonyl)-1H-pyrrolo[2,3-b]pyridin-2-yl)-7-methoxy-1-methyl-1H-benzo[d]imidazol-5-yl)methanone] | 550
COc1cc(C(=O)N2[C@H]3CC[C@@H]2[C@H](N)C3)cc2nc(-c3cc4ccc(-n5c(C)cccc5=O)nc4n3CC3CC3)n(C)c12 [Example 255, 1-(2-(5-((1R,2R,4S)-2-amino-7-azabicyclo[2.2.1]heptane-7-carbonyl)-7-methoxy-1-methyl-1H-benzo[d]imidazol-2-yl)-1-(cyclopropylmethyl)-1H-pyrrolo[2,3-b]pyridin-6-yl)-6-methylpyridin-2(1H)-one] | 40.2
COc1cc(C(=O)N2C[C@H](N)CC[C@@H]2C)cc2nc(-c3cc4ccc(-c5cc6cn[nH]c6cc5C)nc4n3CC3CC3)n(C)c12 [Example 256, ((2S,5R)-5-amino-2-methylpiperidin-1-yl)(2-(1-(cyclopropylmethyl)-6-(6-methyl-1H-indazol-5-yl)-1H-pyrrolo[2,3-b]pyridin-2-yl)-7-methoxy-1-methyl-1H-benzo[d]imidazol-5-yl)methanone] | 1330
COc1cc(C(=O)N2C[C@H](N)CC[C@@H]2C)cc2nc(-c3cc4ccc(-c5ccc6[nH]ncc6c5C)nc4n3CC3CC3)n(C)c12 [Example 257, ((2S,5R)-5-amino-2-methylpiperidin-1-yl)(2-(1-(cyclopropylmethyl)-6-(4-methyl-1H-indazol-5-yl)-1H-pyrrolo[2,3-b]pyridin-2-yl)-7-methoxy-1-methyl-1H-benzo[d]imidazol-5-yl)methanone] | 1360
COc1cc(C(=O)N2C[C@H](N)CC[C@@H]2C)cc2nc(-c3cc4ccc(-c5cccc6c5NC(=O)C6)nc4n3CC3CC3)n(C)c12 [Example 259, 7-(2-(5-((2S,5R)-5-amino-2-methylpiperidine-1-carbonyl)-7-methoxy-1-methyl-1H-benzo[d]imidazol-2-yl)-1-(cyclopropylmethyl)-1H-pyrrolo[2,3-b]pyridin-6-yl)indolin-2-one] | 1830
COc1cc(C(=O)N2C[C@H](N)CC[C@@H]2C)cc2nc(-c3cc4ccc(-c5ccc(N6CCC6)nc5C)nc4n3CC3CC3)n(C)c12 [Example 260, ((2S,5R)-5-amino-2-methylpiperidin-1-yl)(2-(6-(6-(azetidin-1-yl)-2-methylpyridin-3-yl)-1-(cyclopropylmethyl)-1H-pyrrolo[2,3-b]pyridin-2-yl)-7-methoxy-1-methyl-1H-benzo[d]imidazol-5-yl)methanone] | 364
COc1cc(C(=O)N2C[C@H](N)CC[C@@H]2C)cc2nc(-c3cc4ccc(-c5cccnc5N5CCOCC5)nc4n3CC3CC3)n(C)c12 [Example 261, ((2S,5R)-5-amino-2-methylpiperidin-1-yl)(2-(1-(cyclopropylmethyl)-6-(2-morpholinopyridin-3-yl)-1H-pyrrolo[2,3-b]pyridin-2-yl)-7-methoxy-1-methyl-1H-benzo[d]imidazol-5-yl)methanone] | 457
COc1cc(C(=O)N2C[C@H](N)CC[C@@H]2C)cc2nc(-c3cc4ccc(-c5cccc6c5CNC6=O)nc4n3CC3CC3)n(C)c12 [Example 262, 4-(2-(5-((2S,5R)-5-amino-2-methylpiperidine-1-carbonyl)-7-methoxy-1-methyl-1H-benzo[d]imidazol-2-yl)-1-(cyclopropylmethyl)-1H-pyrrolo[2,3-b]pyridin-6-yl)isoindolin-1-one] | 584
COc1cc(C(=O)N2C[C@H](N)CC[C@@H]2C)cc2nc(-c3cc4ccc(-c5cccnc5N5CCCC5)nc4n3CC3CC3)n(C)c12 [Example 263, ((2S,5R)-5-amino-2-methylpiperidin-1-yl)(2-(1-(cyclopropylmethyl)-6-(2-(pyrrolidin-1-yl)pyridin-3-yl)-1H-pyrrolo[2,3-b]pyridin-2-yl)-7-methoxy-1-methyl-1-benzo[d]imidazol-5-yl)methanone] | 687
COc1cc(C(=O)N2C[C@H](N)CC[C@@H]2C)cc2nc(-c3cc4ccc(-c5cccnc5N5CCNCC5)nc4n3CC3CC3)n(C)c12 [Example 264, ((2S,5R)-5-amino-2-methylpiperidin-1-yl)(2-(1-(cyclopropylmethyl)-6-(2-(piperazin-1-yl)pyridin-3-yl)-1H-pyrrolo[2,3-b]pyridin-2-yl)-7-methoxy-1-methyl-1H-benzo[d]imidazol-5-yl)methanone] | 1870
COc1cc(C(=O)N2C[C@H](N)CC[C@@H]2C)cc2nc(-c3cc4ccc(-c5cccnc5S(C)(=O)=O)nc4n3CC3CC3)n(C)c12 [Example 265, ((2S,5R)-5-amino-2-methylpiperidin-1-yl)(2-(1-(cyclopropylmethyl)-6-(2-(methylsulfonyl)pyridin-3-yl)-1H-pyrrolo[2,3-b]pyridin-2-yl)-7-methoxy-1-methyl-1H-benzo[d]imidazol-5-yl)methanone] | 269
COc1cc(C(=O)N2C[C@H](N)CC[C@@H]2C)cc2nc(-c3cc4ccc(-c5cccnc5-c5cncnc5)nc4n3CC3CC3)n(C)c12 [Example 266, ((2S,5R)-5-amino-2-methylpiperidin-1-yl)(2-(1-(cyclopropylmethyl)-6-(2-(pyrimidin-5-yl)pyridin-3-yl)-1H-pyrrolo[2,3-b]pyridin-2-yl)-7-methoxy-1-methyl-1H-benzo[d]imidazol-5-yl)methanone] | 346
COc1cc(C(=O)N2C[C@H](N)CC[C@@H]2C)cc2nc(-c3cc4ccc(-c5cccnc5-c5cncs5)nc4n3CC3CC3)n(C)c12 [Example 267, ((2S,5R)-5-amino-2-methylpiperidin-1-yl)(2-(1-(cyclopropylmethyl)-6-(2-(thiazol-5-yl)pyridin-3-yl)-1H-pyrrolo[2,3-b]pyridin-2-yl)-7-methoxy-1-methyl-1H-benzo[d]imidazol-5-yl)methanone] | 138
